Biological target: indoleamine 2,3-dioxygenase (IDO) (Homo sapiens, UniProt P14902)
Assay: HeLa cell-based indoleamine 2,3-dioxygenase (IDO) assay (kynurenine production, IFNγ-stimulated)
Conditions: HeLa cells, IFNγ 25 ng/mL, 48 hour incubation; read-out: IDO Hela IC50
Description: Assessment of inhibitor activity in HeLa cell-based indoleamine 2,3-dioxygenase (IDO) assay. HeLa (ATCC® CCL-2) cells were obtained from the ATCC® and cultured in Dulbecco's Modified Eagle Medium supplemented with 4.5 g/L glucose, 4.5 […] sodium pyruvate (#10-013-CV, Corning), 2 mM L-alanyl-L-glutamine dipeptide (#35050-061, Gibco), 100U/mL penicillin, 100 μg/mL streptomycin (#SV30010, HyClone) and 10% fetal bovine serum (#SH30071.03 HyClone). Cells were maintained in a humidified incubator at 37° C. in 5% CO2. […] After 24 hours, the media was aspirated and replaced with media containing IFNγ (#285-IF/CF, R&D Systems) at a final concentration of 25 ng/mL. A serial dilution of each test compound was added to the cells in a total volume of 200 μL of culture medium. After a further 48 hour incubation, 170 μL of supernatant was transferred from each well to a fresh 96-well plate. 12.1 μL of 6.1N trichloroacetic acid (#T0699, Sigma-Aldrich) was added to each well and mixed, followed by incubation at 65° C. for 20 minutes to hydrolyze N-formylkynurenine, the product of indoleamine 2,3-dioxygenase, to kynurenine. The reaction mixture was then centrifuged for 10 mins at 500×g to sediment the precipitate. 100 μL of the supernatant was transferred from each well to a fresh 96-well plate. 100 μl of 2% (w/v) p-dimethylaminobenzaldehyde (#15647-7, Sigma-Aldrich) in acetic acid (#A6283, Sigma-Aldrich) was added to each well mixed and incubated at room temperature for 20 mins. Kynurenine concentrations were determined by measuring absorbance at 480 nm and calibrating against an L-kynurenine (#K8625, Sigma-Aldrich) standard curve using a SPECTRAMAX® M2e microplate reader (Molecular Devices). The percentage activity at each inhibitor concentration was determined and IC50 values assessed using nonlinear regression. Activity for compounds described herein is provided in Table 1, wherein potency levels are provided as follows: (Potency: IDO IC50: […])

Sequence of indoleamine 2,3-dioxygenase (IDO) (P14902 whole entry): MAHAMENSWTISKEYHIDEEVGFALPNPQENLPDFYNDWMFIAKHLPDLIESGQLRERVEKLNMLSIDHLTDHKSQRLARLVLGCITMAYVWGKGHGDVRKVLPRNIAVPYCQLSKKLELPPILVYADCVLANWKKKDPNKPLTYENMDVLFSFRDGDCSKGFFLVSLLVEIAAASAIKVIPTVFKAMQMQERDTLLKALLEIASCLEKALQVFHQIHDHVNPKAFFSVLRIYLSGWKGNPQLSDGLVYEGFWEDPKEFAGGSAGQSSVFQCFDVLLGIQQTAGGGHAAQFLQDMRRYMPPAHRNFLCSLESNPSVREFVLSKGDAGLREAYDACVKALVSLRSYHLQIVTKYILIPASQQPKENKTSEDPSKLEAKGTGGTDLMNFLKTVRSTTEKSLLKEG

IC50 [µM]	SMILES
0.82	CC[C@@H](NC(=O)c1cnc(OC)nc1)[C@H]1CC[C@@H](c2ccnc3c(F)cccc32)CC1 (single isomer, unassigned) [Example 60a, N-(1-(4-(8-fluoroquinolin-4-yl)cyclohexyl)propyl)-2-methoxypyrimidine-5-carboxamide]
0.22	CC[C@H](NC(=O)c1ccc(OC)nc1)[C@H]1CC[C@@H](c2cncc(OC)c2)CC1 (single isomer, unassigned) [Example 50d, 6-methoxy-N-(1-(4-(5-methoxypyridin-3-yl)cyclohexyl)propyl)nicotinamide]
0.83	CCC(NC(=O)c1ccc(OC)nc1)C1CCC(c2ccnc3c(F)cc(F)cc23)CC1 (single isomer, unassigned) [Example 57a]
0.33	CC[C@@H](NC(=O)c1ccc(OC)nc1)[C@H]1CC[C@@H](c2ccnc3c(F)cccc32)CC1 (single isomer, unassigned) [Example 59c, N-(1-(4-(8-fluoroquinolin-4-yl)cyclohexyl)propyl)-6-methoxynicotinamide]
0.08	CCOC[C@@H](NC(=O)c1ccc(OC)nc1)[C@H]1CC[C@@H](c2ccnc3ccc(C(F)(F)F)cc32)CC1 (single isomer, unassigned) [Example 13a, N-(2-Ethoxy-1-(4-(6-(trifluoromethyl)quinolin-4-yl)cyclohexyl)ethyl)-6-methoxynicotinamide]
0.29	CCC(NC(=O)c1ccc(OC)nc1)C1CCC(c2cccc(C(F)(F)F)n2)CC1 (single isomer, unassigned) [Example 47d, 6-methoxy-N-(1-(4-(6-(trifluoromethyl)pyridin-2-yl)cyclohexyl)propyl)nicotinamide]
0.07	CCC(NC(=O)c1ccc(OC)nc1)[C@H]1CC[C@@H](c2nccc(C)n2)CC1 (single isomer, unassigned) [Example 49a, (±)-6-methoxy-N-(1-(4-(4-methylpyrimidin-2-yl)cyclohexyl)propyl)nicotinamide]
0.03	CCC(NC(=O)c1ccc(OC)nc1)[C@H]1CC[C@@H](c2nccc(C)n2)CC1 (single isomer, unassigned) [Example 49b, (±)-6-methoxy-N-(1-(4-(4-methylpyrimidin-2-yl)cyclohexyl)propyl)nicotinamide]

Continued, compound first:

SMILES	IC50 [µM]
CCC(NC(=O)c1ccc(OC)nc1)C1CCC(c2ccnc(OC)c2C)CC1 (single isomer, unassigned) [Example 28a, 6-Methoxy-N-(1-((1s,4s)-4-(2-methoxy-3-methylpyridin-4-yl)cyclohexyl)propyl)nicotinamide]	0.54
CC[C@@H](NC(=O)c1ccc(OC)nc1)[C@H]1CC[C@@H](c2ccnc(F)c2C)CC1 (single isomer, unassigned) [Example 56c, N-(1-(4-(2-fluoro-3-methylpyridin-4-yl)cyclohexyl)propyl)-6-methoxynicotinamide]	0.6
CCC(NC(=O)c1ccc(OC)nc1)C1CCC(c2ccnc3c(C(F)(F)F)cccc23)CC1 (single isomer, unassigned) [Example 18a, 6-Methoxy-N-(1-((1s,4s)-4-(8-(trifluoromethyl)quinolin-4-yl)cyclohexyl)propyl)nicotinamide]	0.83
CC[C@@H](NC(=O)c1cnc(OC)nc1)[C@H]1CC[C@@H](c2ccnc3c(F)cccc32)CC1 (single isomer, unassigned) [Example 60d, N-(1-(4-(8-fluoroquinolin-4-yl)cyclohexyl)propyl)-2-methoxypyrimidine-5-carboxamide]	0.17
CCC(NC(=O)c1ccc(OC)nc1)[C@H]1CC[C@@H](c2ccnc3c(OC)cc(C(F)(F)F)cc32)CC1 (mixture of isomers) [Example 44, (±)-6-methoxy-N-(1-((cis)-4-(8-methoxy-6-(trifluoromethyl)quinolin-4-yl)cyclohexyl)propyl)nicotinamide]	0.01
CCC(NC(=O)c1ccc(OC)nc1)C1CCC(c2ccnc3ncccc23)CC1 (mixture of isomers) [Example 52, (+/−)-Cis and trans N-(1-(4-(1,8-naphthyridin-4-yl)cyclohexyl)propyl)-6-methoxynicotinamide]	0.03
CCC(NC(=O)c1ccc(OC)nc1)[C@H]1CC[C@@H](c2cc(C)ccn2)CC1 (single isomer, unassigned) [Example 45b, (±)-6-methoxy-N-(1-(4-(4-methylpyridin-2-yl)cyclohexyl)propyl)nicotinamide]	0.62
COCC(NC(=O)c1ccc(OC)nc1)C1CCC(c2ccnc3ccc(F)cc23)CC1 (stereo not shown) [Example 14b, N-(1-((1s,4s)-4-(6-Fluoroquinolin-4-yl)cyclohexyl)-2-methoxyethyl)-6-methoxynicotinamide]	0.01

Same assay, conditions: HeLa cells; potency class; read-out: Patent Potency Hela IC50 A < 10 nM, B > 10 nM, C > 100 nM

IC50 [µM]	SMILES
> 0.1	CCC(NC(=O)c1ccc(OC)nc1)C1CCC(c2cccc(C)n2)CC1 (single isomer, unassigned) [Example 46b, 6-methoxy-N-(1-(4-(6-methylpyridin-2-yl)cyclohexyl)propyl)nicotinamide]
< 0.01	COCCOCC(NC(=O)c1ccc(OC)nc1)C1CCC(c2ccnc3ccc(F)cc23)CC1 (single isomer, unassigned) [Example 15a, N-(1-((1s,4s)-4-(6-Fluoroquinolin-4-yl)cyclohexyl)-2-(2-methoxyethoxy)ethyl)-6-methoxynicotinamide]
> 0.01	CCC(NC(=O)c1ccc(=O)[nH]c1)[C@H]1CC[C@@H](c2ccnc(OC)c2C(F)F)CC1 (stereo partly shown) [Example 63-2, N-(1-((1s,4s)-4-(3-(difluoromethyl)-2-methoxypyridin-4-yl)cyclohexyl)propyl)-6-oxo-1,6-dihydropyridine-3-carboxamide]
> 0.1	CCC(NC(=O)c1ccc(=O)[nH]c1)C1CCC(c2ccnc(OC)c2C(F)F)CC1 (single isomer, unassigned) [Example 63-1, N-(1-((1s,4s)-4-(3-(difluoromethyl)-2-methoxypyridin-4-yl)cyclohexyl)propyl)-6-oxo-1,6-dihydropyridine-3-carboxamide]
< 0.01	COCCOCC(NC(=O)c1cnc(OC)nc1)C1CCC(c2ccnc3ccc(F)cc23)CC1 (single isomer, unassigned) [Example 16b, N-(1-((1s,4s)-4-(6-Fluoroquinolin-4-yl)cyclohexyl)-2-(2-methoxyethoxy)ethyl)-2-methoxypyrimidine-5-carboxamide]
> 0.1	CCC(NC(=O)c1ccc(OC)nc1)[C@H]1CC[C@@H](c2cc[nH]c(=O)c2C(F)F)CC1 (stereo partly shown) [Example 64-2, N-(1-((1s,4s)-4-(3-(difluoromethyl)-2-oxo-1,2-dihydropyridin-4-yl)cyclohexyl)propyl)-6-methoxynicotinamide]

Further lines, the compound ahead of its results:

SMILES	IC50 [µM]
CCC(NC(=O)c1ccc(OC)nc1)C1CCC(c2cc[nH]c(=O)c2C(F)F)CC1 (single isomer, unassigned) [Example 64-1, N-(1-((1s,4s)-4-(3-(difluoromethyl)-2-oxo-1,2-dihydropyridin-4-yl)cyclohexyl)propyl)-6-methoxynicotinamide]	> 0.1
CCC(NC(=O)c1ccc(OC)nc1)C1CCC(c2cccc(=O)n2C)CC1 (single isomer, unassigned) [Example 32d, 6-Methoxy-N-(1-(4-(1-methyl-6-oxo-1,6-dihydropyridin-2-yl)cyclohexyl)propyl)nicotinamide]	> 0.1
CCOC[C@@H](NC(=O)c1ccc(OC)nc1)[C@H]1CC[C@@H](c2ccnc3ccc(C(F)(F)F)cc32)CC1 (single isomer, unassigned) [Example 13b, N-(2-Ethoxy-1-(4-(6-(trifluoromethyl)quinolin-4-yl)cyclohexyl)ethyl)-6-methoxynicotinamide]	< 0.01
CC[C@@H](NC(=O)c1ccc(OC)nc1)[C@H]1CC[C@@H](c2cnc3ccccc3c2)CC1 (single isomer, unassigned) [Example 20b, 6-Methoxy-N-(1-(4-(quinolin-3-yl)cyclohexyl)propyl)nicotinamide]	> 0.1
CCC(NC(=O)c1ccc(OC)nc1)C1CCC(c2ccnc(OC)c2F)CC1 (stereo not shown) [Example 22, N-(1-(4-(3-Fluoro-2-methoxypyridin-4-yl)cyclohexyl)propyl)-6-methoxynicotinamide]	> 0.1
COc1ccc(C(=O)N[C@H](CC2(C)COC2)[C@H]2CC[C@@H](c3ccnc4ccc(C(F)(F)F)cc43)CC2)cn1 (single isomer, unassigned) [Example 17c, 6-Methoxy-N-(2-(3-methyloxetan-3-yl)-1-(4-(6-(trifluoromethyl)quinolin-4-yl)cyclohexyl)ethyl)nicotinamide]	> 0.1
